The record followed here is PubChem BioAssay AID1259407 (Chemical Carcinogenesis Research Information System (CCRIS), 2018).

Activity calls are given as the source filed them. How the calls were made is not given here.

This data set deals with CCRIS mutagenicity, Ames/micronucleus/aberration tests. Description: CCRIS mutagenicity studies.
[1] abbreviates: Test System: AMES SALMONELLA TYPHIMURIUM, Strain/Indicator: TA98, Metabolic Activation: NONE, Method: PREINCUBATION
[2] abbreviates: Test System: AMES SALMONELLA TYPHIMURIUM, Strain/Indicator: TA98, Metabolic Activation: RAT, LIVER, S-9, PHENOBARBITAL AND 5,6-BENZOFLAVONE, Method: PREINCUBATION
Setting [3] is: Test System: AMES SALMONELLA TYPHIMURIUM, Strain/Indicator: TA100, Metabolic Activation: NONE, Method: PREINCUBATION
Setting [4] is: Test System: AMES SALMONELLA TYPHIMURIUM, Strain/Indicator: TA100, Metabolic Activation: RAT, LIVER, S-9, PHENOBARBITAL AND 5,6-BENZOFLAVONE, Method: PREINCUBATION
Where [5] appears, read: Test System: AMES SALMONELLA TYPHIMURIUM, Strain/Indicator: TA1535, Metabolic Activation: NONE, Method: PREINCUBATION
The mark [6] stands for this setting: Test System: AMES SALMONELLA TYPHIMURIUM, Strain/Indicator: TA1535, Metabolic Activation: RAT, LIVER, S-9, PHENOBARBITAL AND 5,6-BENZOFLAVONE, Method: PREINCUBATION
[7] abbreviates: Test System: AMES SALMONELLA TYPHIMURIUM, Strain/Indicator: TA1537, Metabolic Activation: NONE, Method: PREINCUBATION
Where [8] appears, read: Test System: AMES SALMONELLA TYPHIMURIUM, Strain/Indicator: TA1537, Metabolic Activation: RAT, LIVER, S-9, PHENOBARBITAL AND 5,6-BENZOFLAVONE, Method: PREINCUBATION

For `COC1=C(OC)C(=O)C(C/C=C(\C)CC/C=C(\C)CC/C=C(\C)CC/C=C(\C)CC/C=C(\C)CC/C=C(\C)CC/C=C(\C)CC/C=C(\C)CC/C=C(\C)CCC=C(C)C)=C(C)C1=O`, the mutagenic call by setting is: under setting [1], “inactive; negative”; under setting [2], “inactive; negative”; under setting [3], “inactive; negative”; under setting [4], “inactive; negative”; under setting [5], “inactive; negative”; under setting [6], “inactive; negative”. Moreover, the mutagenic call runs as follows: under setting [7], “inactive; negative”; under setting [8], “inactive; negative”; (Test System: E. COLI, Strain/Indicator: WP2UVRA, Metabolic Activation: NONE, Method: PREINCUBATION) “inactive; negative”; (Test System: E. COLI, Strain/Indicator: WP2UVRA, Metabolic Activation: RAT, LIVER, S-9, PHENOBARBITAL AND 5,6-BENZOFLAVONE, Method: PREINCUBATION) “inactive; negative”.
In the case of `CCCOC(C(=O)OC1CCN(C)CC1)(c1ccccc1)c1ccccc1`, the mutagenic call runs as follows: under setting [1], “inactive; negative”; under setting [2], “inactive; negative”; under setting [3], “inactive; negative”; under setting [4], “inactive; negative”; under setting [5], “inactive; negative”; under setting [6], “inactive; negative”. Moreover, the mutagenic call was “inactive; negative” under setting [7]; “inactive; negative” under setting [8]; “inactive; negative” (Test System: E. COLI, Strain/Indicator: WP2 UVRA, Metabolic Activation: NONE, Method: PREINCUBATION); “inactive; negative” (Test System: E. COLI, Strain/Indicator: WP2 UVRA, Metabolic Activation: RAT, LIVER, S-9, PHENOBARBITAL AND 5,6-BENZOFLAVONE, Method: PREINCUBATION).
For the molecule `CCc1nc(N)nc(N)c1-c1ccc(Cl)cc1`, the mutagenic call (End Point: IN VITRO CHROMOSOMAL ABERRATIONS, Test System: HUMAN LYMPHOCYTES, Metabolic Activation: NONE) is “active; positive”; the mutagenic call (End Point: IN VITRO MICRONUCLEUS, Test System: HAMSTER V79 CELLS, Metabolic Activation: NONE) is “inactive; negative”; the mutagenic call (End Point: In vivo chromosomal aberrations, Species: Mouse, Strain/Sex: Swiss/Male, Route: Intraperitoneal) was “active; positive (at highest dose only)”; the mutagenic call (End Point: In vivo chromosomal aberrations, Test System: Bone marrow cells, Species: Mouse, Strain/Sex: Swiss/Male, Route: Intraperitoneal) was “active; positive (chromatid breaks and acentric fragments)”; the mutagenic call (End Point: In vivo chromosomal aberrations, Test System: Spermatocytes, Species: Mouse, Strain/Sex: Swiss/Male, Route: Intraperitoneal) was “active; positive (at highest dose only)”; the mutagenic call (Test System: E.COLI, Strain/Indicator: WP2UVRA/PKM101, Metabolic Activation: NONE, Method: PREINCUBATION) is “inactive; negative”. In addition, under “Test System: E.COLI, Strain/Indicator: WP2UVRA/PKM101, Metabolic Activation: RAT LIVER S-9, PHENOBARBITAL AND 5,6-BENZOFLAVONE, Method: PREINCUBATION”, the mutagenic call is “inactive; negative”.
With `Oc1cccc2[nH]c3ccccc3c12`, the mutagenic call (Test System: CHINESE HAMSTER OVARY, Strain/Indicator: CHO-K1-BH4 (HGPRT)/6-THIOGUANINE, Metabolic Activation: RAT, LIVER, S-9, AROCLOR (4%)) was “active; positive”.
Take `COC(=O)CN(N=O)C(N)=O`: the mutagenic call runs as follows: (Test System: E. COLI B, Strain/Indicator: H/R30R, Metabolic Activation: NONE) “active; positive”; (Test System: E. COLI B, Strain/Indicator: HS30R, Metabolic Activation: NONE) “active; positive”.
For the molecule `[S]1[S][SbH][S][S][SbH]1`, the mutagenic call (Test System: CHINESE HAMSTER OVARY, Strain/Indicator: CHO (HGPRT)/6-THIOGUANINE, Metabolic Activation: NONE) is “inactive; negative” and the mutagenic call (Test System: CHINESE HAMSTER OVARY, Strain/Indicator: CHO (HGPRT)/6-THIOGUANINE, Metabolic Activation: RAT, LIVER, S-9, AROCLOR 1254) was “inactive; negative”.
Consider `CC(C)N(CC(O)c1ccc(NS(C)(=O)=O)cc1)N=O` (configuration not stated), for which the mutagenic call was “active; positive” (Test System: UDS HUMAN HEPATOCYTES, Strain/Indicator: THY INCORP, Metabolic Activation: NONE, Method: AUTORADIOGRAPHY) and “active; positive” (Test System: UDS RAT HEPATOCYTES, Strain/Indicator: THY INCORP, Metabolic Activation: NONE, Method: AUTORADIOGRAPHY).
As to `COc1cc2nc3cc(N)ccc3nc2cc1N`, the mutagenic call (Test System: AMES SALMONELLA TYPHIMURIUM, Strain/Indicator: TA98, Metabolic Activation: S-9, Method: SUSPENSION/PLATE) was “active; positive”.
Take `Cc1c([N+](=O)[O-])c(C)c([N+](=O)[O-])c(C(C)(C)C)c1[N+](=O)[O-]`: the mutagenic call was “inactive; negative” under setting [1]; “inactive; negative” (Test System: AMES SALMONELLA TYPHIMURIUM, Strain/Indicator: TA98, Metabolic Activation: NONE, Method: STANDARD PLATE); “inactive; negative” (Test System: AMES SALMONELLA TYPHIMURIUM, Strain/Indicator: TA98, Metabolic Activation: RAT, LIVER, S-9, AROCLOR 1254, Method: PREINCUBATION); “inactive; negative” (Test System: AMES SALMONELLA TYPHIMURIUM, Strain/Indicator: TA98, Metabolic Activation: RAT, LIVER, S-9, AROCLOR 1254, Method: STANDARD PLATE); “inactive; negative” under setting [3]; “inactive; negative” (Test System: AMES SALMONELLA TYPHIMURIUM, Strain/Indicator: TA100, Metabolic Activation: NONE, Method: STANDARD PLATE). The mutagenic call is “inactive; negative” (Test System: AMES SALMONELLA TYPHIMURIUM, Strain/Indicator: TA100, Metabolic Activation: RAT, LIVER, S-9, AROCLOR 1254, Method: PREINCUBATION); “inactive; negative” (Test System: AMES SALMONELLA TYPHIMURIUM, Strain/Indicator: TA100, Metabolic Activation: RAT, LIVER, S-9, AROCLOR 1254, Method: STANDARD PLATE); “inactive; negative” (Test System: MOUSE LYMPHOMA, Strain/Indicator: L5178Y (TK+/TK-), Metabolic Activation: NONE, Method: SUSPENSION/PLATE); “inactive; negative” (Test System: MOUSE LYMPHOMA, Strain/Indicator: L5178Y (TK+/TK-), Metabolic Activation: RAT, LIVER, S-9, AROCLOR 1242 AND 1254 (2:1), Method: SUSPENSION/PLATE); “inactive; negative” (Test System: UDS RAT HEPATOCYTES, Strain/Indicator: THY INCORP, Metabolic Activation: NONE); “inactive; negative” (Test System: UDS RAT HEPATOCYTES, Strain/Indicator: THY INCORP, Metabolic Activation: NONE, Method: IN VIVO-IN VITRO).
